Results from patent publication US7030087B2, “Synthetic approach to designed chemical structures” (priority 1996, dated 2006).

Experiments:
[1] = test system: endotoxin from E. coli 055:B5; test: Limulus amoebocyte lysate assay (E-TOXATE), endotoxin neutralization; assay type: biochemical; conditions: 5.0 × 10^−6 M Peptide; 0.02 U (0.2 pg) endotoxin from E. coli 055:B5; Table 4
Experimental: The peptides were tested for their ability to neutralize endotoxin. Quantitative endotoxin activities for these peptides were measured by Limulus amoebocyte lysate assay.
Limulus amoebocyte lysate assay: The ability of synthetic peptides to neutralize endotoxin was detected with the E-TOXATE kit manufactured by Sigma Chemicals (St. Louis, Mo.). […] Peptide or B/PI was incubated with LPS at room temperature for 5 min in 100 ul of a 1:2 dilution of pyrogen-free saline (pH 6.4). The reaction was started by addition of 100 ul of amoebocyte lysate and the final volume was 200 ul. Assuming a 10,000 molecular weight for LPS, the approximate molar ration of B/PI:LPS at neutralization was 3000 to 1.
The peptides were tested according to the method provided above. […] BG38L was used as a positive control in these experiments.

[2] = test system: P. aeruginosa; test: Bactericidal activity assay; assay type: cell-based, Pseudomonas aeruginosa type 1
Source text: Bacteria: P. aeruginosa type 1 is a clinical isolate maintained in the laboratory. The isolate remains a smooth strain and was serotyped by the scheme of Homma. The Pseudomonas strain was maintained by monthly transfer on blood agar plates.
The peptides can be assayed for bactericidal activity against a variety of organisms such as Pseudomonas aeruginosa type 1, P. cepacia ATCC 25608, E. coli B, and Staphylococcus aureus 502A by standard methods.
Pseudomonas aeruginosa type 1 is a clinical isolate. The isolate remains a smooth strain and was serotyped by the scheme of Homma (Jpn. J. Exp. Med. 46:329, 1976). A rough strain, E. coli B and S. aureus 502A were obtained from Paul Quie, University of Minnesota (Minneapolis, Minn.). The characteristics of the S. aureus strain have been described by Shinefield et al. (Amer. J. Dis. Chil. 105:646, 1963). Pseudomonas cepacia ATCC 25608 can be purchased from the ATCC. S. aureus and E. coli were maintained on nutrient agar plates and the Pseudomonas strains were maintained on blood agar plates.
Pyrogen-free solutions were used throughout the assay and all methods that follow. Log phase bacteria were prepared from a culture in brain heart infusion broth (Hovde et al. Infect. Immun. 54:142–148, 1986) and bacteria were washed and resuspended in saline with adjustment to an optical density at 650 nm to provide a yield of about 3×10^8 CFU/ml. Bacteria were diluted 1:10 in 0.08M citrate phosphate buffer, pH 5.6 or pH 7.0, for use in the assay. S. aureus rapidly lost viability in the pH 5.6 buffer and was studied only at pH 7.0. Bactericidal activity was determined by dose response over peptide concentrations ranging from about […] to about 4.1×10^−9M. Bactericidal activity was determined by dose response, preferably determining LD50 by linear regression.

[3] = test system: ICAM-1; test: ICAM-1 expression on endothelial cells (immunofluorescence, FACScan); assay type: cell-based, human
Experimental: In a first series of experiments, PF4 and βpep peptides were tested for their ability to prevent bFGF (fibroblast growth factor) mediated downregulation of ICAM-1. […] Simultaneously 100 μg/ml of each PF4, βpep-14, βpep-16, or medium was added. Mean ICAM-1 fluorescence intensity values were determined.
(§1) Since the in vivo situation of tumor associated EC involves the low expression or even absence of ICAM-1, the next set of experiments aimed to study the ability to reinduce ICAM-I expression after bFBF preincubation. […] In these experiments, HUVEC were pretreated for 3 days with bFGF, subsequently PF4 was added for 3 days and, where indicated in the last 16 hours of culture 4 ng/ml TNFα was added. Human umbilical vein derived endothelial cells (HUVEC) were harvested from normal human umbilical cords by perfusion with 0.125% trypsin/EDTA as described previously. Cells were cultured in fibronectin (FN) coated tissue culture flasks in culture medium (RPMI-1640 with 20% human serum (HS), supplemented with 2 mM glutamine and 100 U/ml penicillin and 0.1 mg/ml streptomycin). Immunofluorescence using indirect PE-conjugated reagents required three separate incubations. 1×10^5 EC were fixed for 1 hour in 1% paraformaldehyde, resuspended in 20 μl appropriately diluted Mab and incubated for 1 hour on ice. Subsequently, cells were washed two times in PBS/BSA (0.1%) and incubated for another 30 minutes with biotinylated rabbit-anti-mouse Ig (Dako, Glostrup, Denmark). After another 2 washings, cells were incubated with streptavidin-phycoerythrin conjugate (Dako). Stained cells were analyzed on a FACScan flowcytometer. Data analysis was performed using PCLysys software (Becton Dickinson, Mountain View, Calif.). Statistical significance of observed differences was determined using the Student's t-test.
The energy of EC to stimulation with inflammatory cytokines was the subject of a next series of experiments. For these experiments, HUVEC (human vascular endothelial cells) were pretreated with 10 ng/ml bFGF for 3 days. Subsequently, cells are subcultured for 3 days with […] in the presence of PF4. For the last 16 hours of the culture 4 ng/ml TNFα was added to induce upregulation of ICAM-1. […] The regulation of ICAM-1 at the protein level was confirmed in Northern blot analysis for detection of ICAM-1 message. In these experiments, HUVEC were cultured for 3 days with bFGF and treated for the last 4 and 24 hours with PF4 (100 μg/ml). TNFα was added 2 hours before isolation of RNA. RNA from a subconfluent EC cultures (75 cm^2 Petri-dishes) incubated with bFGF for different time-points was isolated using an RNA-zol kit (Campro Scientific, Houston, Tex.). Total RNA (10 μg) for each sample was separated in a 0.8% formaldehyde-denaturing gel, transferred to nitrocellulose (Hybond N+, Amersham International, Amersham, UK) and hybridized to a ^32P-labelled 1.9 Kb c-DNA probe, containing the functional sequence of the human ICAM-1 gene (a gift from Dr. B. Seed). Membranes were washed at a high stringency in 0.2×SSC, 0.1% SDS at 50° C. for 1 hour. Filters were exposed to X-ray films (Kodak X-omat, Eastman Kodak Company, Rochester, N.Y.) using an intensifying screen at −80° C. for not less than 12 hr. Autoradiograms were subjected to scanning using a laser densitometer (Model GS670, Bio-Rad, Hercules, Calif.) and data were analysed with the Molecular Analyst PC™ software. The intensity of the major ICAM-1 mRNA transcript was normalized with respect to actin mRNA expression used as a control.

[4] = test system: EC (endothelial cells); test: EC proliferation, 3[H]thymidine incorporation assay; assay type: cell-based
Experimental: as §1
EC proliferation was measured using a ^3[H]thymidine incorporation assay. EC were seeded in flatbottomed 96-well tissue culture plates (5000 cells/well) and grown for 3 days, in culture medium. In some cultures the proliferation of EC was enhanced by incubation with 10 ng/ml bFGF. During the list 6 hours of the assay, the culture was pulsed with 0.5 μCi [methyl-^3H]thymidine/well. Results are expressed as the arithmetic mean counts per minute (cpm) of triplicate cultures.

[5] = test system: endothelial cells (FBHEC, HUVEC); test: Endothelial cell proliferation assay of βpeptides 1–24 (FIG. 7); assay type: cell-based
Experimental: FIG. […] FIG. 7A provides ^3H-Thymidine incorporation data for FBHEC cells and FIG. 7B provides ^3H-Thymidine incorporation data for HUVEC cells.
βpeptides 1–24 were tested in an endothelial cell proliferation assay using ^3H-thymidine incorporation. […]

SIQDLNVSMKLFRKQAKWKLIVKLNDGRELSLD [βpep-14]
Endotoxin Neutralization, % neutralization [1]: 38.8 n = 1%
Bactericidal Activity, % killing ([2]; 1.2 × 10^−7 M Peptide, 5 × 105 P. aeruginosa): 0%
Bactericidal Activity, % killing at the effective dose ([2]; at the Ed for the same peptide): 39.9%
Bactericidal Activity, Ed, Effective M dose ([2]; dose at which the % in brackets was found): 960 nM
bFGF mediated downregulation of ICAM-1 (in words) ([3]; 10 ng/ml bFGF for 3 days, 100 μg/ml added simultaneously): complete block of bFGF mediated downregulation
EC proliferation in vitro (in words) [4]: angiostatic
(3H)-thymidine incorporation ([4]; expt 2 (first, r11), 1 μg/ml, 10 ng/ml bFGF, medium 29079 ± 2506): 28695 ± 1062 cpm
(3H)-thymidine incorporation ([4]; expt 2 (first, r11), 1 μg/ml, no bFGF, medium 14296 ± 2490): 14184 ± 1775 cpm
(3H)-thymidine incorporation ([4]; expt 2 (first, r11), 10 μg/ml, 10 ng/ml bFGF, medium 29079 ± 2506): 29530 ± 1608 cpm
(3H)-thymidine incorporation ([4]; expt 2 (first, r11), 10 μg/ml, no bFGF, medium 14296 ± 2490): 9886 ± 2114 cpm
(3H)-thymidine incorporation ([4]; expt 2 (first, r11), 100 μg/ml, 10 ng/ml bFGF, medium 29079 ± 2506): 6585 ± 132 cpm
(3H)-thymidine incorporation ([4]; expt 2 (first, r11), 100 μg/ml, no bFGF, medium 14296 ± 2490): 3774 ± 299 cpm
(3H)-thymidine incorporation ([4]; expt 2 (second, r19), 1 μg/ml, 10 ng/ml bFGF, medium 52808 ± 4092): 48443 ± 2700 cpm
(3H)-thymidine incorporation ([4]; expt 2 (second, r19), 1 μg/ml, no bFGF, medium 6780 ± 713): 7214 ± 1668 cpm
(3H)-thymidine incorporation ([4]; expt 2 (second, r19), 10 μg/ml, 10 ng/ml bFGF, medium 52808 ± 4092): 52126 ± 1258 cpm
(3H)-thymidine incorporation ([4]; expt 2 (second, r19), 10 μg/ml, no bFGF, medium 6780 ± 713): 6074 ± 899 cpm
(3H)-thymidine incorporation ([4]; expt 2 (second, r19), 100 μg/ml, 10 ng/ml bFGF, medium 52808 ± 4092): 7663 ± 715 cpm
(3H)-thymidine incorporation ([4]; expt 2 (second, r19), 100 μg/ml, no bFGF, medium 6780 ± 713): 1062 ± 325 cpm

SIQFLKVSLNLDRKQAKWKIIVKLNDGRELSLD [βpep-24]
control of endothelial cell proliferation (in words) [5]: very good at controlling cell proliferation
effectiveness at decreasing endothelial cell growth ([5]; 0.26 micromolar): about 30%

interferon-γ inducible protein-10 [IP-10]
effect of other inhibitors of angiogenesis on ICAM-1 expression (in words) [3]: same results
(3H)-thymidine incorporation ([4]; expt 3, 100 μg/ml, 10 ng/ml bFGF, medium 3432 ± 232): 725 ± 95 cpm

thrombospondin-1 [TSP-1]
effect of other inhibitors of angiogenesis on ICAM-1 expression (in words) [3]: same results
(3H)-thymidine incorporation ([4]; expt 4, 10 μg/ml, 10 ng/ml bFGF, medium 31954 ± 1220): 22338 ± 860 cpm
(3H)-thymidine incorporation ([4]; expt 4, 10 μg/ml, no bFGF, medium 18904 ± 1501): 8865 ± 639 cpm
(3H)-thymidine incorporation ([4]; expt 4, 25 μg/ml, 10 ng/ml bFGF, medium 31954 ± 1220): 10267 ± 797 cpm
(3H)-thymidine incorporation ([4]; expt 4, 25 μg/ml, no bFGF, medium 18904 ± 1501): 5565 ± 349 cpm
